Measured values published in patent US10590411B2, “Crude biological derivatives competent for nucleic acid detection” (APPLIED BIOSYSTEMS, LLC, priority 2002, dated 2020).

System: tissue plasminogen activator (t-PA)
Assay: t-PA mRNA level after PMA treatment, one-step real-time RT-PCR on cell lysate
Assay type: cell-based
Conditions: HeLa cells, 100 and 10 nM PMA, 24 hours, normalized to 18S rRNA
Procedure: FIG. 3. Illustrates an example of measuring the levels of 18S rRNA and tPA mRNA in HeLa cells that were incubated with different concentrations of PMA by one-step, real-time RT-PCR in the ABI 7700. The cells were processed in 96-well plates using the methods of the invention.
Cells were grown overnight in 0.2 ml DME media with 10% FBS with equal number of cells in each well of a 96-well plate. After an overnight incubation, phorbol myristate acetate (PMA) is added to final concentrations of 100, 10, 1, 0.1, and 0 nM in the growth medium in replicates of eight. The cells were incubated at 37° C. for 24 hours. The 96-well plate and lid were placed on the Packard MultiPROBE® II HT Liquid Handling System from PerkinElmer Life Sciences on the proper deck positions. All proceeding steps were entered into the WinPrep for automation. The growth medium was removed and the cells washed with 1×PBS. A volume of 0.1 ml Cell Lysis Buffer is added to each well. The plate was moved to a heating tile, for example, a tile at 75°, and incubated for 10 minutes. […] The plate was shaken for 2 minutes. PMSF can be used when the heating tile cannot heat the sample to 75° C. to inactivate the proteinase K. Two μl DNase I (2 U/μl) was added to each well and the plate was moved to a 37° C. heating tile. The plate was incubated for 15 minutes while shaking. […] The plate was ready for one-step RT-PCR. […]

CCCCCCCCCCCCCC(=O)O[C@@H]1[C@@H](C)[C@@]2(O)[C@@H](C=C(CO)C[C@]3(O)C(=O)C(C)=C[C@@H]23)[C@@H]2C(C)(C)[C@]12OC(C)=O [PMA, phorbol myristate acetate]
stimulation of t-PA: ~29 fold
